pIC50: −log10 of the molar value. One block for each compound: values may come before it. Calls of active or inactive are those of the source. No cut-off for these calls is given here.
What was measured:
A549 [1] = test: cells; settings: Homo sapiens, A549, 72 h, read-out: GI
A549 [2] = test: cells; settings: Homo sapiens, A549, 72 h
Description: Growth inhibition of human A549 cells after 72 hrs by Alamarblue assay

[3] = target: T1, Amine oxidase [flavin-containing] A (Homo sapiens, UniProt P21397); test: biochemical
T1 sequence (P21397 whole entry): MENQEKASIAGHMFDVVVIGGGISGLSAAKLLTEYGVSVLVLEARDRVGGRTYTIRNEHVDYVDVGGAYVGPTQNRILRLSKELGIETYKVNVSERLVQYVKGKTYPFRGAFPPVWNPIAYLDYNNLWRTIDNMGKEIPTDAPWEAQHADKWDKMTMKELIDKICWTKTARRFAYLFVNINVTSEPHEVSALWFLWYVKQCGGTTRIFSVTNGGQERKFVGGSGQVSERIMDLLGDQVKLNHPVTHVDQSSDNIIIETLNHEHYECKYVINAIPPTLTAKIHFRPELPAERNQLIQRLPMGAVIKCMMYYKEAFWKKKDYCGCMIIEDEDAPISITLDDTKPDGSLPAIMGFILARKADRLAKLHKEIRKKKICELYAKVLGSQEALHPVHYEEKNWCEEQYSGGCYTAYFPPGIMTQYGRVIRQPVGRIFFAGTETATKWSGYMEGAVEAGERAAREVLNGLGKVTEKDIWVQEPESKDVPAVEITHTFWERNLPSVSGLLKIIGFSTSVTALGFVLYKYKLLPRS
Description: Inhibition of recombinant human MAO-A expressed in baculovirus infected BTI insect cells using (4S)-4,5-dihydro-2-(6-hydroxybenzothiazolyl)-4-thiazolecarboxylic acid as substrate measured after 60 mins by chemiluminescence assay

[4] = target: T2, Amine oxidase [flavin-containing] B (Homo sapiens, UniProt P27338); test: biochemical
T2 sequence (P27338 whole entry): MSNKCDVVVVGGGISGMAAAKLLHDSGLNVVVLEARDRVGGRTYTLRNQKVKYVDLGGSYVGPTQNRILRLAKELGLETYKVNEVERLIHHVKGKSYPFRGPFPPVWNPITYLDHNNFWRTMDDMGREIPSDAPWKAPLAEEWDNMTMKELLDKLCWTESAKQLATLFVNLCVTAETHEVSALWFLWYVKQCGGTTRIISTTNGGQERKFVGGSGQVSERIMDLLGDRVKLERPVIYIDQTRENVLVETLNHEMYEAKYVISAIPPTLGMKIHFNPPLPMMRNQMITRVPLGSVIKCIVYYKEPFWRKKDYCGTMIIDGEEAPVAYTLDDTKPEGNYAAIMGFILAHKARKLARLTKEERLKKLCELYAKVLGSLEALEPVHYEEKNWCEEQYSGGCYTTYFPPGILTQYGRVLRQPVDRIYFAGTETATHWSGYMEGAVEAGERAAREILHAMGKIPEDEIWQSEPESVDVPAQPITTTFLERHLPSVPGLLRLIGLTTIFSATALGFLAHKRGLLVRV
Description: Inhibition of recombinant human MAO-B expressed in baculovirus infected BTI insect cells using (4S)-4,5-dihydro-2-(6-hydroxybenzothiazolyl)-4-thiazolecarboxylic acid as substrate measured after 60 mins by chemiluminescence assay

A549 [5] = settings: Homo sapiens, 10 uM
A549 [6] = test: Cell cycle arrest in human A549 cells assessed as increase in G1 population at 2 uM measured after 24 hrs by propidium iodide staining based flow cytometric analysis; type: functional
A549 [7] = test: Cell cycle arrest in human A549 cells assessed as decrease in S population at 2 uM measured after 24 hrs by propidium iodide staining based flow cytometric analysis; type: functional
A549 [8] = test: Cell cycle arrest in human A549 cells assessed as accumulation at sub-G1 population at 6 to 8 uM by propidium iodide staining based flow cytometric analysis; type: functional; settings: TDE = time-dependent effect

- GI50 (A549 [2]): 8.6 µM
- pIC50 [3]: < 4.00
- pIC50 [4]: < 4.00
Compound: O=C(N[C@@H](CCCCN[C@@H]1C[C@H]1c1ccccc1)C(=O)NCc1cccc(Cl)c1)c1ccc(-c2ccccc2)cc1
- inhibition of growth at 10 µM (A549 [1]): 100%

Compound: O=C(N[C@@H](CCCCN[C@@H]1C[C@H]1c1ccccc1)C(=O)NCc1ccccc1)c1ccccc1
- growth inhibition (GI) (A549 [5]): inactive

Compound: CNS(=O)(=O)c1cccc(-c2ccc([C@@H]3C[C@H]3NCCCCC3C(=O)N(Cc4ccccc4)CCN(c4ccccc4)C3=O)cc2)c1 (relative stereo)
- inhibition of growth at 10 µM (A549 [1]): 16%

- GI50 (A549 [2]): 5.8 µM
- pIC50 [3]: < 4.00
- pIC50 [4]: < 4.00
Compound: O=C1C(CCCCN[C@@H]2C[C@H]2c2ccccc2)C(=O)N(c2ccc(-c3ccccc3)cc2)CCN1Cc1cccc(Cl)c1 (relative stereo)
- Activity (A549 [6]): Active
- Activity (A549 [7]): Active
- Activity (A549 [8]): Tde
- inhibition of growth at 10 µM (A549 [1]): 100%

Compound: CNC(=O)c1cccc(-c2ccc([C@@H]3C[C@H]3NCCCCC3C(=O)N(Cc4cccc(Cl)c4)CCN(c4ccc(-c5ccccc5)cc4)C3=O)cc2)c1 (relative stereo)
- inhibition of growth at 10 µM (A549 [1]): 26%

Compound: CNC(=O)c1cccc(-c2ccc([C@@H]3C[C@H]3NCCCCC3C(=O)N(Cc4ccccc4)CCN(c4ccccc4)C3=O)cc2)c1 (relative stereo)
- inhibition of growth at 10 µM (A549 [1]): 26%

Compound: COc1cccc(-c2ccc([C@@H]3C[C@H]3NCCCCC3C(=O)N(Cc4ccccc4)CCN(c4ccccc4)C3=O)cc2)c1 (relative stereo)
- inhibition of growth at 10 µM (A549 [1]): 16%

— ChEMBL document CHEMBL4219062, “Design, synthesis and evaluation of γ-turn mimetics as LSD1-selective inhibitors” (Bioorg Med Chem, 2018)
